Assay results: patent US5232924A, “Heterocyclic compound having serotonine 2-receptor antagonistic activity” (Daiichi Pharmaceutical Co., Ltd., priority 1989, dated 1993)
Structures can show the parent of a compound that is named as a salt.

Tests used:
Serotonin 2-Receptor = target: T1, Serotonin 2-Receptor (Rattus norvegicus, UniProt P14842); assay: Antagonistic activity on serotonin 2-receptor: inhibition of the serotonin-induced increase in blood pressure in anesthetized rats; type: in vivo; settings: SD-SLC male rat, 10 mg/kg p.o., inhibition of blood pressure increase by serotonin 300 μg/kg i.v.
T1 construct: from tissue; host or cells: intact anesthetized SD-SLC male rat (vascular response)
Protocol: A test compound dissolved in purified water was orally administered to an SD-SLC male rat at a dose of 10 mg/kg. After 30 minutes from the administration, the rat was anesthetized with urethane (1 g/kg, i.p.) and α-Chloralose (80 mg/kg, i.p.). A polyethylene cannula was inserted into the carotid artery, and the blood pressure was recorded on a polygraph by using a pressure transducer. After 60 minutes or 180 minutes from the administration of the test compound, 300 μg/kg of serotonin was intravenously injected, and an increase in blood pressure was observed. Serotonin 2 (hereinafter referred to as […]) antagonistic activity of the test compound was calculated as a percentage of inhibition of an increase in blood pressure induced by […]. The inhibitory effect of the test compound wa compared with that of vehicle solution treated group.

[1] = test system: Sympathetic Nerve α1 -Receptor; assay: Antagonistic activity on sympathetic nerve α1-receptor: inhibition of the phenylephrine-induced increase in blood pressure in anesthetized rats; type: in vivo; settings: SD-SLC male rat, 10 mg/kg p.o.; after 60 minutes from the administration; inhibition of blood pressure increase by phenylephrine 100 μg/kg i.v.
Protocol: A test compound dissolved in purified water was orally administered to an SD-SLC male rat at a dose of 10 mg/kg. After 30 minutes from the administration, the rat was anesthetized with urethane (1 g/kg, i.p.) and α-Chloralose (80 mg/kg, i.p.). A polyethylene cannula was inserted into the carotid artery, and the blood pressure was recorded on a polygraph by using a pressure transducer. After 60 minutes from the administration of the test compound, 100 μg/kg of phenylephrine was intravenously injected to observe an increase in blood pressure. Sympathetic nerve α1 -receptor antagonistic activity of the test compound was calculated as a percentage of inhibition of an increase in blood pressure induced by phenylephrine. The inhibitory effect of the test compound was compared with that of vehicle solution treated group.

Mongrel dogs [2] = assay: Acute cardiac infarction model: LDA ligature and reperfusion in dogs; type: in vivo; settings: dog, 1 mg/kg/hr intravenous drip, mean ± S.E.M.
Protocol: Mongrel dogs (body weight: 8 to 20 kg) under anesthesia were ventilated artificially and underwent a left thracotomy. […] A polyethylene cannula was inserted into the femoral artery, and the blood pressure and heart rate were recorded A cannula was inserted into the […] of a drug and also into the carotid artery from which a blood sample was to be taken. After stabilization period of the test preparation, LDA was ligated with a clamp. After 2 hours from the ligature, the clamp was released for reperfusion. After observation for the following 4 hours, the heart was excised. […] Then, the heart was washed and sliced at 1 cm intervals from the apex in the direction vertical to the longer axis. Each slice at the left ventricle was divided into a part which was in risk of cardiac infarction indicated by Evans' Blue stain (hereinafter referred to as risk area) and a normal area, and each area was weighed. The weight of the left ventricle (the sum of the risk area and the normal area) and that of the risk area of each slice were individually added up to obtain the weight of the whole left ventricle and the total weight of the risk area. Further, of each slice, the area of the risk area which was not stained with Evans' Blue and that of a cardiac infarction area within the risk area which remained white, i.e., which was stained neither in blue with Evans' Blue nor in red with triphenyltetrazolium chloride, were measured to obtain a ratio of cardiac infarction part to the whole left ventricle (infarction size). […] The experiment was conducted for the following groups.

ddy male mice = assay: Toxicity in mice, repeated oral administration; type: in vivo, mouse
Protocol: A test compound dissolved or suspended in a 1% methyl cellulose solution was orally administered to ddy male mice (4 or 5 mice per group) at a dose of 200 mg/kg once a day for consecutive 4 days. The number of dead animals per group was counted on the day next to the final administration day. As a control, 10 mλ/kg of 1% methyl cellulose solution was orally administered.

[3] = test system: Sympathetic Nerve α1 -Receptor; assay: Antagonistic activity on sympathetic nerve α1-receptor: inhibition of the phenylephrine-induced increase in blood pressure in anesthetized rats; type: in vivo; settings: SD-SLC male rat, 10 mg/kg p.o.; after 180 minutes from the administration; inhibition of blood pressure increase by phenylephrine 100 μg/kg i.v.
Mongrel dogs [4] = assay: Angina pectoris model: partial LDA occlusion with cyclic coronary flow reduction in dogs; type: in vivo; settings: dog, 0.1 mg/kg i.v. (maleate); mean ± S.E.M.; before admin. 9.9 ± 2.5
Protocol: Mongrel dogs (body weight: 8 to 20 kg) under anesthesia with pentobarbital (30 mg/kg, i.v.) were ventilated artificially and underwent a left thoracotomy. LDA was separated from connected tissues. A silicone tube for partial occlusion was placed around the LDA, and a probe for blood flow rate measurement was fixed in the neighborhood. The blood flow rate was measured with a pulse Doppler blood flow meter. A cannula was inserted into a branch distal to the occlusion site of the left coronary artery, and the coronary blood pressure was measured. A polyethylene cannula was inserted into the femoral artery, and the systemic blood pressure and heart rate were recorded. A cannula was inserted to the femoral vein for administration of a drug.
The effect of the drug was expressed in terms of frequency of the periodic reduction of blood flow rate.

rats = assay: Toxicity in rats, oral administration for 10 days; type: in vivo, rat; settings: 5 test animals
[5] = after 60 minutes from the administration
[6] = ddy male mice, 200 mg/kg p.o. once a day for consecutive 4 days, dead animals per group

T1 sequence (P14842 whole entry): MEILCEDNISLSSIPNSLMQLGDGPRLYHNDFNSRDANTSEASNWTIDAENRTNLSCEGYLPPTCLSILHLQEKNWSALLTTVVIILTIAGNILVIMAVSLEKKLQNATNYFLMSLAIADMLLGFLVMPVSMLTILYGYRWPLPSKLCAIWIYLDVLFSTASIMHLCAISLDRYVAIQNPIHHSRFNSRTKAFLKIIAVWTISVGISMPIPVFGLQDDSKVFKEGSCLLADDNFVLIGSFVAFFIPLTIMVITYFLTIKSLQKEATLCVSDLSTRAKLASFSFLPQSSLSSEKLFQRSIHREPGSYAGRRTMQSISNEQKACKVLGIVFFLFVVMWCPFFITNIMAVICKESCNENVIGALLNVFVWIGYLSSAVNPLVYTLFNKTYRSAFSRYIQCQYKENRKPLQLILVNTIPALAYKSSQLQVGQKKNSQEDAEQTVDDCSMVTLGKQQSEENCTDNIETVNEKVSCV

Compound: Cl.Cl.O=c1nc2n(c(=O)n1CCN1CCC(=C(c3ccc(F)cc3)c3ccc(F)cc3)CC1)CCC2 [Example 20, 3-[2-[4-[Bis(4-fluorophenyl)methylene]-piperidin-1-yl]ethyl]-7,8-dihydro-2H,6H-pyrrolo[1,2-a]-1,3,5-triazine-2,4(3H)-dione Dihydrochloride]
- Antagonistic Activity 5-HT2 (%) (Serotonin 2-Receptor; [5]): 83%
- Antagonistic Activity α1 (%) [1]: 1%

Compound: Cl.O=C(c1ccc(F)cc1)C1CCN(CCn2c(=O)nc3n(c2=O)CCCC3)CC1 [Example 2, 3-[2-[4-(4-Fluorobenzoyl)piperidin-1-yl]ethyl]-6,7,8,9-tetrahydro-2H-pyrido[1,2-a]-1,3,5-triazine-2,4(3H)-dione Hydrochloride]
- Antagonistic Activity 5-HT2 (%) (Serotonin 2-Receptor; [5]): 93%
- Myocardial Blood Flow (Mongrel dogs [2]; after 2 h ligature and reperfusion, control 62 ± 9): 89 ± 14 ml/min/100 g
- Infarction Size (%) (Mongrel dogs [2]; ratio of cardiac infarction part to the whole left ventricle, control 30 ± 7): 11 ± 3%
- Toxicity (Death Rate) (ddy male mice; [6]): 1/5
- Antagonistic Activity α1 (%) [1]: 9%

Compound: O=C(c1ccc(F)cc1)C1CCN(CCn2nc3ccccn3c2=O)CC1 [Example 49, 2-[2-[4-(4-Fluorobenzoyl)piperidin-1-yl]ethyl]-1,2,4-triazolo[4,3-a]-pyridin-3(2H)-one Hydrochloride Hemihydrate]
- Antagonistic Activity 5-HT2 (%) (Serotonin 2-Receptor; after 180 minutes from the administration): 82%
- Toxicity (Death Rate) (ddy male mice; [6]): 0/5
- Antagonistic Activity α1 (%) [3]: 3%

Compound: O=c1n(CCN2CCC(=C(c3ccc(F)cc3)c3ccc(F)cc3)CC2)nc2n1CCCO2 [Example 44, 2-[2-[4-Bis(4-fluorophenyl)methylene]piperidin-1-yl]ethyl]-6,7-dihydro-5H-1,2,4-triazolo[3.4-b1-1,3-oxazin-3(2H)-one Hydrochloride Hemihydrate]
- Antagonistic Activity 5-HT2 (%) (Serotonin 2-Receptor; [5]): 89%
- Toxicity (Death Rate) (ddy male mice; [6]): 2/5
- Antagonistic Activity α1 (%) [1]: 2%

Compound: O=c1nc2sccn2c(=O)n1CCN1CCC(=C(c2ccc(F)cc2)c2ccc(F)cc2)CC1 [Example 21, 3-[2-[4-[Bis(4-fluorophenyl)methylene]piperidin-1-yl]ethyl]-2H-thiazolo-[3.2-a]-1,3,5-triazine-2,4(3H)-dione Hydrochloride]
- Antagonistic Activity 5-HT2 (%) (Serotonin 2-Receptor; [5]): 93%
- Antagonistic Activity α1 (%) [1]: 3%

Compound: O=C(c1ccc(F)cc1)C1CCN(CCn2c(=O)nc3n(c2=O)CCCC3)CC1 [Example 3, 3-[2-[4-(4-Fluorobenzoyl)piperidin-1-yl]ethyl]-6,7,8,9-tetrahydro-2H-pyrido1,2-a]-1,3,5-triazine-2,4(3H)-dione Maleate]
- Frequency of Periodic Reduction in Blood Flow Rate, After Admin. (Mongrel dogs [4]): 2.3 ± 1.2
- Antagonistic Activity 5-HT2 (%) (Serotonin 2-Receptor; [5]): 93%
- Toxicity (Death Rate) (ddy male mice; [6]): 0/5
- Antagonistic Activity α1 (%) [1]: 39%
- Number of Dead Animals (rats; 50 mg/kg (p.o.)): 0
- Number of Dead Animals (rats; 200 mg/kg (p.o.)): 0
- Number of Dead Animals (rats; 800 mg/kg (p.o.)): 0

Compound: O=c1n(CCN2CCC(=C(c3ccc(F)cc3)c3ccc(F)cc3)CC2)nc2n1CCCCC2 [Example 34, 2-[2-[4-[Bis(4-fluorophenyl)methylene]piperidin-1-yl]ethyl]-2,5,6,7,8,9-hexahydro-3H-1,2,4-triazolo[4,3-a]azepin-3-one Hydrochloride Hemihydrate]
- Antagonistic Activity 5-HT2 (%) (Serotonin 2-Receptor; [5]): 90%
- Toxicity (Death Rate) (ddy male mice; [6]): 1/4
- Antagonistic Activity α1 (%) [1]: 3%

Compound: O=C(c1ccc(F)cc1)C1CCN(CCn2c(=O)[nH]c3ccccc3c2=O)CC1 [Ketanserin, reference compound]
- Antagonistic Activity 5-HT2 (%) (Serotonin 2-Receptor; [5]): 96%
- Toxicity (Death Rate) (ddy male mice; mouse, in vivo, po, 200 mg/kg): 5/5
- Antagonistic Activity α1 (%) [1]: 73%

Compound: O=C(O)/C=C\C(=O)O.O=C(c1ccc(F)cc1)[C@@H]1CCN(CCn2nc3n(c2=O)CCCC3)C[C@H]1c1ccc(F)cc1 (relative stereo) [Example 67, 2-[2-[trans-3-(4-Fluorophenyl)-4-(4-fluorobenzoyl)piperidin-1-yl]ethyl]-5,6,7,8-tetrahydro-3H-1,2,4-triazolo[4,3-a]pyridin-3(2H)-one Maleate]
- Antagonistic Activity 5-HT2 (%) (Serotonin 2-Receptor; [5]): 90%
- Antagonistic Activity α1 (%) [1]: 4%

Compound: Cl.O=C(c1ccc(F)cc1)C1CCN(CCn2nc3n(c2=O)CCCC3)CC1 [Example 51, 2-[2-[4-(4-Fluorobenzoyl)piperidin-1-yl]ethyl]-5,6,7,8-tetrahydro-1,2,4-triazolo[4,3-a]-pyridin-3(2H)-one Hydrochloride]
- Antagonistic Activity 5-HT2 (%) (Serotonin 2-Receptor; [5]): 95%
- Toxicity (Death Rate) (ddy male mice; [6]): 0/5
- Antagonistic Activity α1 (%) [1]: 3%

Compound: CCO.Cl.O=c1n(CCN2CCC(=C(c3ccccc3)c3ccc(F)cc3)CC2)nc2n1CCCCC2 [Example 36, 2-[2-[4-[(4-Fluorophenyl)(phenyl)methylene]piperidin-1-yl]ethyl]-2,5,6,7,8,9-hexahydro-3H-1,2,4-triazolo[4,3-a]azepin-3-one Hydrochloride Ethanolate]
- Antagonistic Activity 5-HT2 (%) (Serotonin 2-Receptor; [5]): 84%
- Toxicity (Death Rate) (ddy male mice; [6]): 0/5
- Antagonistic Activity α1 (%) [1]: 3%

Compound: O=C(c1ccc(F)cc1)C1(O)CCN(CCn2c(=O)nc3n(c2=O)CCCC3)CC1 [Example 11, 3-[2-[4-(4-Fluorobenzoyl)-4-hydroxy-piperidin-1-yl]ethyl]-6,7,8,9-tetrahydro-2H-pyrido[1,2-a-]-1,3,5-triazine-2,4(3H)-dione Dihydrochloride Hemihydrate]
- Antagonistic Activity 5-HT2 (%) (Serotonin 2-Receptor; [5]): 83%
- Antagonistic Activity α1 (%) [1]: 0%

Compound: O=C(c1ccc(Cl)cc1)C1CCN(CCn2nc3n(c2=O)CCCC3)CC1 [Example 75, 2-[2-[4-(4-Chlorobenzoyl)piperidin-1-yl]ethyl]-5,6,7,8-tetrahydro-1,2,4-triazolo[4,3-a]pyridin-3(2H)-one Hydrochloride]
- Antagonistic Activity 5-HT2 (%) (Serotonin 2-Receptor; [5]): 83%
- Toxicity (Death Rate) (ddy male mice; [6]): 0/3
- Antagonistic Activity α1 (%) [1]: 17%

Compound: Cl.Cl.O=c1nc2n(c(=O)n1CCN1CCC(=C(c3ccc(F)cc3)c3ccc(F)cc3)CC1)CCCC2 [Example 18, 3-[2-[4-[Bis(4-fluorophenyl)methylene]-piperidin-1-yl]ethyl]-6,7,8,9-tetrahydro-2H-pyrido-[1,2-a]-1,3,5-triazine-2,4(3H)-dione Dihydrochloride]
- Antagonistic Activity 5-HT2 (%) (Serotonin 2-Receptor; [5]): 93%
- Toxicity (Death Rate) (ddy male mice; [6]): 0/5
- Antagonistic Activity α1 (%) [1]: 6%

Compound: Cc1nc2sccn2c(=O)c1CCN1CCC(=C(c2ccc(F)cc2)c2ccc(F)cc2)CC1 [Ritanserin, reference compound]
- Antagonistic Activity 5-HT2 (%) (Serotonin 2-Receptor; [5]): 84%
- Toxicity (Death Rate) (ddy male mice; [6]): 3/5
- Antagonistic Activity α1 (%) [1]: 5%

Compound: Cl.O=C(c1ccc(F)cc1)C1(O)CCN(CCn2nc3n(c2=O)CCCC3)CC1 [Example 63, 2-[2-[4-(4-Fluorobenzoyl)-4-hydroxypiperidin-1-yl]ethyl]-5,6,7,8-tetrahydro-1,2,4-triazolo[4,3-a]pyridin-3(2H)-one Hydrochloride]
- Antagonistic Activity 5-HT2 (%) (Serotonin 2-Receptor; [5]): 85%
- Antagonistic Activity α1 (%) [1]: 0%
